# Results from patent publication US20260215418A1, “HYDROCARBON ALCOHOLS AND THEIR DERIVATIVES AS SYNERGISTS IN PESTICIDE ACTIVITY” (priority 2022, published 2026).
# “And” between values parts separate entries of the source, which are not always exact repeats. Equal values may be shown once. Read-outs that look alike come from different tables or passages of the source.
# Columns and labels:
# Musca domestica L. = assay: Contact test on non-porous tile, Musca domestica; assay type: in vivo; parameters: Mortality %: concentration or dose not given beside the values; conditions: for mortality at 680 µg/mL: 0.68 mg/ml; for Mortality %: insects on treated tile
# Protocol: 1 ml of Composition 1 was applied to the tile. […] 1 ml of Composition 8a was distributed on the tile. […] 1 ml of Composition 8a was distributed on a tile. […] At the end of the 30 minutes, the flies were transferred to an untreated area.
# 1 ml of Composition 3 was applied to the tile. […] 1 ml of Composition 8c was distributed on the tile. […] 1 ml of Composition 8c was distributed on a tile. […] At the end of the 30 minutes, the flies were transferred to an untreated area.
# 1 ml of Composition 9a was distributed on the tile. […] 1 ml of Composition 9a was distributed on a tile. […] At the end of the 30 minutes, the flies were transferred to an untreated area. […] 1 ml of Composition 10a was distributed on the tile. […] 1 ml of Composition 10a was distributed on a tile. […] At the end of the 30 minutes, the flies were transferred to an untreated area. […] 1 ml of Composition 8c was distributed on the tile. […] 1 ml of Composition 8c was distributed on a tile. […] At the end of the 30 minutes, the flies were transferred to an untreated area.
# 1 ml of Composition 5a, was distributed on the tile. […] 1 ml of Composition 6a was distributed on the tile. […] 1 ml of Composition 7a was distributed on the tile.
# 1 ml of Composition 3 was distributed on the tile. […] 1 ml of Composition 9a was distributed on the tile. […] 1 ml of Composition 11a was distributed on a tile. […] 1 ml of Composition 12a was distributed on a tile.
# 1 ml of Composition 3 was distributed on the tile. […] 1 ml of Composition 17a was distributed on a tile. […] 1 ml of Composition 18a was distributed on a tile. […] Each experiment (A-C) was conducted in duplicate.
# 1 ml of Composition 23a was distributed on the tile. […] 1 ml of Composition 20a was distributed on a tile. […] Each experiment (A-B) was conducted in duplicate.
# 1 ml of Composition 3 was distributed on the tile. […] 1 ml of Composition 25a was distributed on a tile. […] Each experiment (A-B) was conducted in duplicate.
# 1 ml of Composition 23a was distributed on the tile. […] 1 ml of Composition 27a was distributed on a tile. […] Each experiment (A-B) was conducted in duplicate.
# 1 ml of Composition 26a was distributed on a tile. […] 1 ml of Composition 26b was distributed on a tile. […] 1 ml of Composition 26c was distributed on a tile.
# 1 ml of Composition 22a was distributed on a tile. […] 1 ml of Composition 22b was distributed on a tile. […] 1 ml of Composition 22c was distributed on a tile.
# 1 ml of Composition 23a was distributed on the tile. […] 1 ml of Composition 44a was distributed on a tile.
# 1 ml of Composition 33 was distributed on a tile. […] 1 ml of Composition 33 was distributed on a tile. […] At the end of the 30 minutes, the flies were transferred to an untreated area.
# 1 ml of Composition 1 was distributed on the tile. […] 1 ml of Composition 34 was distributed on a tile. […] 1 ml of Composition 34 was distributed on a tile. […] At the end of the 30 minutes, the flies were transferred to an untreated area.
# 1 ml of Composition 3 was distributed on the tile. […] 1 ml of Composition 31a was distributed on a tile. […] 1 ml of Composition 31b was distributed on a tile. […] 1 ml of Composition 31b was distributed on a tile. […] At the end of the 30 minutes, the flies were transferred to an untreated area. […] 1 ml of Composition 38a was distributed on a tile. […] 1 ml of Composition 38a was distributed on a tile. […] At the end of the 30 minutes, the flies were transferred to an untreated area.
# G) According to the invention. 1 ml of Composition 40a was distributed on a tile. […] Subsequently, after waiting for the solvent to evaporate, 10 flies were placed on top of the treated til
# Blatta orientalis = conditions: for Mortality %/time (h) (application): Table 37, Blatta orientalis, concentrations in mg/ml in label; for Mortality %: insects on treated tile
# Protocol: Method: Contact test on non-porous tile measuring 400 cm^2 at a temperature of 28° C. Test duration: up to 72 hours after exposure of the insect to the insecticidal active substance.
# (§1) Three tests were performed in parallel, A, B, and C, as follows: • A) Comparative. 1 ml of Composition 2 was applied to the tile. After waiting for the complete evaporation of the solvent, 10 cockroaches were placed on top of the treated tile, starting the test. • B) According to the invention. 1 ml of Composition 8b was distributed on the tile. After waiting for the complete evaporation of the solvent, 1 ml of Composition 2 was added to the same tile. Subsequently, after waiting for the solvent to evaporate, 10 cockroaches were placed on top of the treated tile, starting the test. • C) According to the invention. 1 ml of Composition 8b was distributed on a tile. After waiting for the complete evaporation of the solvent, 10 cockroaches were placed for 30 minutes on top of the treated tile. At the end of the 30 minutes, the cockroaches were transferred to an untreated area.
# Method: Contact test on non-porous tile measuring 400 cm^2 at a temperature of 28° C. Test duration: up to 120 hours after exposure of the insect to the insecticidal active substance.
# as §1, with “4a” for “2”, “8d” for “8b”, “After” for “Subsequently, after”
# Six tests were performed in parallel, A, B, C, D, E and F, as follows: • A) Comparative. 1 ml of Composition 9b was distributed on the tile. After waiting for the complete evaporation of the solvent, 1 ml of Composition 4a was added to the same tile. Subsequently, after waiting for the solvent to evaporate, 10 cockroaches were placed on top of the treated tile, starting the test. • B) Comparative. 1 ml of Composition 9b was distributed on a tile. After waiting for the complete evaporation of the solvent, 10 cockroaches were placed for 30 minutes on top of the treated tile. At the end of the 30 minutes, the cockroaches were transferred to an untreated area. […] 1 ml of Composition 10b was distributed on the tile. After waiting for the complete evaporation of the solvent, 1 ml of Composition 4a was added to the same tile. Subsequently, after waiting for the solvent to evaporate, 10 cockroaches were placed on top of the treated tile, starting the test. • D) Comparative. 1 ml of Composition 10b was distributed on a tile. After waiting for the complete evaporation of the solvent, 10 cockroaches were placed for 30 minutes on top of the treated tile. At the end of the 30 minutes, the cockroaches were transferred to an untreated area. […] 1 ml of Composition 8d was distributed on the tile. After waiting for the complete evaporation of the solvent, 1 ml of Composition 4a was added to the same tile. Subsequently, after waiting for the solvent to evaporate, 10 cockroaches were placed on top of the treated tile, starting the test. • F) According to the invention. 1 ml of Composition 8d was distributed on a tile. After waiting for the complete evaporation of the solvent, 10 cockroaches were placed for 30 minutes on top of the treated tile. At the end of the 30 minutes, the cockroaches were transferred to an untreated area.
# [1] = Musca domestica, single substance alone, 48 h, read-out: Mortality %/time (h)
molecule,measurement,setting,value
"CCCCCCCCCCC(O)CO (stereo not drawn) [1,2-dodecandiol]",mortality at 680 µg/mL,Musca domestica L.; [1],0%
"CCCCC(O)CO (stereo not drawn) [1,2-hexandiol (0.84), 1,2-hexandiol]",Mortality %/time (h) (application),Blatta orientalis; 48 h,0/48 ^ %
"CCCCCCC(O)CO (stereo not drawn) [1,2-octandiol]",mortality at 680 µg/mL,Musca domestica L.; [1],0%
"OCCCCCCCCO [1,8-octandiol]",mortality at 680 µg/mL,Musca domestica L.; [1],0%
COP(=O)(OC)SCn1c(=O)oc2cc(Cl)cnc21 [Azamethiphos],mortality at 6900 µg/mL,"Musca domestica L.; Musca domestica, 48 h, read-out: Mortality %/time (h)",23%
"CC1(C)C(C=C(Cl)Cl)C1C(=O)OC(C#N)c1cccc(Oc2ccccc2)c1 (stereo not drawn) [Composition 3, Cypermethrin, reference compound]",Mortality %,"Musca domestica L.; Example 3, 26° C, 24 h",10%
same,Mortality %,"Musca domestica L.; Example 3, 26° C, 48 h",20%
same,Mortality %,"Musca domestica L.; Example 9, 21° C, 24 h",5%
same,Mortality %,"Musca domestica L.; Example 9, 21° C, 48 h",16%
same,Mortality %,"Musca domestica L.; Example 12, 21° C, 24 h",5%
same,Mortality %,"Musca domestica L.; Example 12, 21° C, 48 h",16%
same,Mortality %,"Musca domestica L.; Example 17, 21° C, 48 h",16%
same,Mortality %,"Musca domestica L.; Example 29, 25° C, 24 h",10%
same,Mortality %,"Musca domestica L.; Example 29, 25° C, 48 h",16%
"CC1(C)C(C=C(Cl)Cl)C1C(=O)OC(C#N)c1cccc(Oc2ccccc2)c1 (stereo not drawn) [Composition 4a, Cypermethrin]",Mortality %,"Blatta orientalis; Example 4, 28° C, 24 h",30%
same,Mortality %,"Blatta orientalis; Example 4, 28° C, 48 h",35%
same,Mortality %,"Blatta orientalis; Example 4, 28° C, 120 h",35%
same,Mortality %,"Blatta orientalis; Example 10, 21° C, 24 h",20%
same,Mortality %,"Blatta orientalis; Example 10, 21° C, 48 h",35%
same,Mortality %,"Blatta orientalis; Example 11, 21° C, 48 h",20%
same,Mortality %,"Blatta orientalis; Example 11, 21° C, 72 h",25%
same,Mortality %,"Blatta orientalis; Example 11, 21° C, 96 h",33%
same,Mortality %,"Blatta orientalis; Example 13, 21° C, 48 h",60%
same,Mortality %,"Blatta orientalis; Example 13, 21° C, 72 h",62%
same,Mortality %,"Blatta orientalis; Example 20, 21° C, 24 h",5%
same,Mortality %,"Blatta orientalis; Example 20, 21° C, 72 h",25%
same,Mortality %,"Blatta orientalis; Example 32, 25° C, 24 h",10%
same,Mortality %,"Blatta orientalis; Example 32, 25° C, 48 h",35%
same,Mortality %,"Blatta orientalis; Example 32, 25° C, 72 h",45%
same,Mortality %/time (h) (application),"Blatta orientalis; 48 h, listed as Cypermethrin (0.20)",35/48 ^ % and 20/48 ^ %
"CCCCC(CC)COC(=O)OCC(CC)CCCC (stereo not drawn) [Composition 17b, Bis(2-ethyl-hexyl)-carbonate]",Mortality %/time (h) (application),Blatta orientalis; 48 h,0/48 ^ %
"CCCCCCCCOC(=O)OCCCCCCCC [Composition 18b, Dioctyl carbonate]",Mortality %/time (h) (application),Blatta orientalis; 48 h,0/48 ^ %
"COP(=O)(OC)SCn1c(=O)oc2cc(Cl)cnc21 [Composition 23a, Azamethiphos, reference compound]",Mortality %,"Musca domestica L.; Example 14, 21° C, 48 h",23%
same,Mortality %,"Musca domestica L.; Example 18, 21° C, 24 h",23%
same,Mortality %,"Musca domestica L.; Example 24, 25° C, 24 h",10%
same,Mortality %,"Musca domestica L.; Example 30, 25° C, 24 h",10%
same,Mortality %,"Musca domestica L.; Example 30, 25° C, 48 h",23%
"CC1(C)C(C=C(Cl)Cl)C1C(=O)OC(C#N)c1cccc(Oc2ccccc2)c1 (stereo not drawn) [Composition 46a, Cypermethrin, reference compound]",Mortality %,"Musca domestica L.; Example 35, 25° C, 24 h",5%
same,Mortality %,"Musca domestica L.; Example 35, 25° C, 48 h",10%
CC1(C)C(C=C(Cl)Cl)C1C(=O)OC(C#N)c1cccc(Oc2ccccc2)c1 (stereo not drawn) [Cypermethrin],mortality at 230 µg/mL,"Musca domestica L.; Musca domestica, single substance alone, 0.23 mg/ml, 48 h, read-out: Mortality %/time (h)",10%
same,mortality at 450 µg/mL,"Musca domestica L.; Musca domestica, single substance alone, 0.45 mg/ml, 48 h, read-out: Mortality %/time (h)",16%
CCCCCCCCCCCCO [Dodecanol],mortality at 680 µg/mL,Musca domestica L.; [1],4%
"Spinosad [Composition 43, reference compound]",Mortality %,"Musca domestica L.; Example 19, 25° C, 24 h",27%
same,Mortality %,"Musca domestica L.; Example 23, 25° C, 24 h",27%
same,Mortality %,"Musca domestica L.; Example 27, 25° C, 24 h",27%
